The text below walks through data of article PMC6383986, “Fragment-Based Covalent Ligand Screening Enables Rapid Discovery of Inhibitors for the RBR E3 Ubiquitin Ligase HOIP” (Journal of the American Chemical Society, 2019).

Experiment [1] deals with T1, HOIP RBR domain (Homo sapiens, UniProt Q96EP0).
T1 construct: made in house; host or cells: E. coli BL21-GOLD(DE3)
T1 sequence (Q96EP0 697-1072): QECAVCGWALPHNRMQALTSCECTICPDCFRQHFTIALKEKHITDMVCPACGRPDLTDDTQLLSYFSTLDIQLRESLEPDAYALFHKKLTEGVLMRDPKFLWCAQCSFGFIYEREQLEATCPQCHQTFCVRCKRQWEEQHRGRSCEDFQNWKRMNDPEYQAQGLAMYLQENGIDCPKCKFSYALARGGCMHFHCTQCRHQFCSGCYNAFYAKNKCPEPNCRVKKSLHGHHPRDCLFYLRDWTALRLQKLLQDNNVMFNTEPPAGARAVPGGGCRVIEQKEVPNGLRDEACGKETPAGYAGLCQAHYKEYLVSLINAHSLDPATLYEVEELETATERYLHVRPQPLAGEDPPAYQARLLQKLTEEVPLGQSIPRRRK
The experiment is described as follows: Fluorescence-based ubiquitin thioester transfer assay. In kind it is biochemical. The note with it: HOIP RBR prelabeled with compound; E2 UbcH7. As for the experimental part: overnight, and further purified by size-exclusion chromatography (Superdex 75/ÄKTA purifier).
The appropriate fractions were concentrated to 4 mL in a 3.5 kDa MWCO protein concentrator (Merck). The protein concentration was measured on a Nanodrop UV spectrophotometer (absorbance at 650 nm) as 19 µM and corroborated by SDS PAGE. Labelling was confirmed by protein LC-MS (Supplementary Figure S10). The labelled protein was aliquoted, flash frozen and […]
Supplementary Figure S10. TIC traces of the deconvoluted protein masses of the M1C ubiquitin mutant (M1C Ub) and the AlexaFluor647 labelled M1C ubiquitin mutant (M1C UbA647).
Formation of the HOIP RBR-(5) conjugate
The HOIP RBR domain (7.5 µM) was incubated (Eppendorf Thermomixer) with inhibitor (5) (750 µM, 1.5% DMSO) in 50 mM HEPES, 150 mM NaCl, pH 7.5 buffer at 600 rpm, 23 °C for 18 h. […] The protein concentration was measured on Nanodrop UV spectrophotometer (absorbance at 280 nm), and the protein was flash frozen in liquid nitrogen […]
(10 min), HOIP RBR or HOIP-RBR-(5) conjugate (5 min), C-terminally His6-tagged ubiquitin (10 min). […] The aliquots were analyzed by SDS PAGE and the gels scanned at 700 nm (LICOR Odyssey CLx) using auto-adjustment of the fluorescence intensity, then stained with Coomassie (Figure 4B and Supplementary Figure S11). […]

For experiment [2], the target named is T2, full-length recombinant IRAK4-FLAG (Homo sapiens, UniProt Q9NWZ3).
T2 construct: recombinant full length IRAK4-FLAG; His6 (with the rest of the FlagHisAvi vector tag) (C, cleaved yes); made in house; host or cells: Sf9 insect cells (baculovirus)
The experiment is described as follows: LCMS labelling of recombinant IRAK4. In kind it is binding. The following applies: 300 μM compound, 1.5 μM IRAK4, 1 h. As for the experimental part:
filter BODIPY FP S-pol 595). The percentage activity was plotted against different compound concentrations and fitted using the IC50 – 4 parameter logistic using GraFit7 Software (Supplementary Figure S17). Percentage activity was calculated by dividing each value by values for no inhibition, then multiplying it by 100. Background correction was carried out by subtracting […]
Two independent experiments were carried out in duplicate.
IRAK4 (1.5 µM) was incubated with compound (11a) (300 µM) in water at ambient temperature for 1 h (final volume 20 µL), and analyzed by LCMS. […]
kinase activity. A) Serial dilutions of compound (11a) (200 µM final top concentration) and IRAK4 […]
concentration) for 1 h before adding 5TAMRA-[…]-NH2 (100 nM final […]
concentration) and ATP (50 μM final concentration). […]
independent experiments, each performed in duplicate.
B) IRAK4 (1.5 µM) was incubated with compound (11a) (300 µM) for 1 h and analyzed by LCMS. The DMSO control was incubated for 5 h. For reference GT-hIRAK4-FLAG (tetraphosphorylated; MW = 53003 Da), compound (11a) (MW = 290 Da).
(1 picture or pasted object on this page, not shown here)

Entries after “also recorded” stand apart in the source; their conditions may differ.

T2 sequence (Q9NWZ3 whole entry): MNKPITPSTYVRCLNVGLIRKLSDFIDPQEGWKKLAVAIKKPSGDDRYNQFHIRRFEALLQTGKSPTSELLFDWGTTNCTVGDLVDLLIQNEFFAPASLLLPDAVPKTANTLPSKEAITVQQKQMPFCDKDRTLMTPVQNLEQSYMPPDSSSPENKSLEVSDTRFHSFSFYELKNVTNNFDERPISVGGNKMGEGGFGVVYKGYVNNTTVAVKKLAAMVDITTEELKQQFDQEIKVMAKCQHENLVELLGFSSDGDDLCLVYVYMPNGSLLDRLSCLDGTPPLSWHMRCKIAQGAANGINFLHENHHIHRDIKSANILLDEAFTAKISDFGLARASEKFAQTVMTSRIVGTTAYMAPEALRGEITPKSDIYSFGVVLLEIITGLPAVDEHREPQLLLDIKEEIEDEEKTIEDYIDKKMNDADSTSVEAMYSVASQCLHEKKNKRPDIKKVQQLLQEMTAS

With `COC(=O)/C=C/CNC(=O)c1cc2c([nH]c1=O)CCC2` [Compound 5], the “formation of E3~Ub thioester / loading of ubiquitin onto HOIP RBR” value in experiment [1] is reported as “inhibits formation of the E3∼Ub thioester intermediate; also recorded: effectively prevented the loading of ubiquitin onto the E3”.
For `COC(=O)/C=C/CNC(=O)c1cc2c([nH]c1=O)CCCC2` [Compound 11a], in experiment [2], the “labelling of IRAK4-FLAG” value is listed as “confirmed by LCMS”.
